As a reminder, the IC50 is the concentration needed to halve the response being measured.

The results in this text go back to patent US12258355B2, “Probes for imaging huntingtin protein” (CHDI Foundation, Inc., priority 2014, dated 2025).

In this experiment the target is T1, Q46 protein aggregates (Homo sapiens, UniProt P42858).
T1 construct: fused on or other part: GST at the N-terminus, cut off with thrombin before the test to start aggregation; The wells held aggregated Q46 without GST
T1 sequence (P42858 with tags, fused parts or gaps with the stated changes, form open): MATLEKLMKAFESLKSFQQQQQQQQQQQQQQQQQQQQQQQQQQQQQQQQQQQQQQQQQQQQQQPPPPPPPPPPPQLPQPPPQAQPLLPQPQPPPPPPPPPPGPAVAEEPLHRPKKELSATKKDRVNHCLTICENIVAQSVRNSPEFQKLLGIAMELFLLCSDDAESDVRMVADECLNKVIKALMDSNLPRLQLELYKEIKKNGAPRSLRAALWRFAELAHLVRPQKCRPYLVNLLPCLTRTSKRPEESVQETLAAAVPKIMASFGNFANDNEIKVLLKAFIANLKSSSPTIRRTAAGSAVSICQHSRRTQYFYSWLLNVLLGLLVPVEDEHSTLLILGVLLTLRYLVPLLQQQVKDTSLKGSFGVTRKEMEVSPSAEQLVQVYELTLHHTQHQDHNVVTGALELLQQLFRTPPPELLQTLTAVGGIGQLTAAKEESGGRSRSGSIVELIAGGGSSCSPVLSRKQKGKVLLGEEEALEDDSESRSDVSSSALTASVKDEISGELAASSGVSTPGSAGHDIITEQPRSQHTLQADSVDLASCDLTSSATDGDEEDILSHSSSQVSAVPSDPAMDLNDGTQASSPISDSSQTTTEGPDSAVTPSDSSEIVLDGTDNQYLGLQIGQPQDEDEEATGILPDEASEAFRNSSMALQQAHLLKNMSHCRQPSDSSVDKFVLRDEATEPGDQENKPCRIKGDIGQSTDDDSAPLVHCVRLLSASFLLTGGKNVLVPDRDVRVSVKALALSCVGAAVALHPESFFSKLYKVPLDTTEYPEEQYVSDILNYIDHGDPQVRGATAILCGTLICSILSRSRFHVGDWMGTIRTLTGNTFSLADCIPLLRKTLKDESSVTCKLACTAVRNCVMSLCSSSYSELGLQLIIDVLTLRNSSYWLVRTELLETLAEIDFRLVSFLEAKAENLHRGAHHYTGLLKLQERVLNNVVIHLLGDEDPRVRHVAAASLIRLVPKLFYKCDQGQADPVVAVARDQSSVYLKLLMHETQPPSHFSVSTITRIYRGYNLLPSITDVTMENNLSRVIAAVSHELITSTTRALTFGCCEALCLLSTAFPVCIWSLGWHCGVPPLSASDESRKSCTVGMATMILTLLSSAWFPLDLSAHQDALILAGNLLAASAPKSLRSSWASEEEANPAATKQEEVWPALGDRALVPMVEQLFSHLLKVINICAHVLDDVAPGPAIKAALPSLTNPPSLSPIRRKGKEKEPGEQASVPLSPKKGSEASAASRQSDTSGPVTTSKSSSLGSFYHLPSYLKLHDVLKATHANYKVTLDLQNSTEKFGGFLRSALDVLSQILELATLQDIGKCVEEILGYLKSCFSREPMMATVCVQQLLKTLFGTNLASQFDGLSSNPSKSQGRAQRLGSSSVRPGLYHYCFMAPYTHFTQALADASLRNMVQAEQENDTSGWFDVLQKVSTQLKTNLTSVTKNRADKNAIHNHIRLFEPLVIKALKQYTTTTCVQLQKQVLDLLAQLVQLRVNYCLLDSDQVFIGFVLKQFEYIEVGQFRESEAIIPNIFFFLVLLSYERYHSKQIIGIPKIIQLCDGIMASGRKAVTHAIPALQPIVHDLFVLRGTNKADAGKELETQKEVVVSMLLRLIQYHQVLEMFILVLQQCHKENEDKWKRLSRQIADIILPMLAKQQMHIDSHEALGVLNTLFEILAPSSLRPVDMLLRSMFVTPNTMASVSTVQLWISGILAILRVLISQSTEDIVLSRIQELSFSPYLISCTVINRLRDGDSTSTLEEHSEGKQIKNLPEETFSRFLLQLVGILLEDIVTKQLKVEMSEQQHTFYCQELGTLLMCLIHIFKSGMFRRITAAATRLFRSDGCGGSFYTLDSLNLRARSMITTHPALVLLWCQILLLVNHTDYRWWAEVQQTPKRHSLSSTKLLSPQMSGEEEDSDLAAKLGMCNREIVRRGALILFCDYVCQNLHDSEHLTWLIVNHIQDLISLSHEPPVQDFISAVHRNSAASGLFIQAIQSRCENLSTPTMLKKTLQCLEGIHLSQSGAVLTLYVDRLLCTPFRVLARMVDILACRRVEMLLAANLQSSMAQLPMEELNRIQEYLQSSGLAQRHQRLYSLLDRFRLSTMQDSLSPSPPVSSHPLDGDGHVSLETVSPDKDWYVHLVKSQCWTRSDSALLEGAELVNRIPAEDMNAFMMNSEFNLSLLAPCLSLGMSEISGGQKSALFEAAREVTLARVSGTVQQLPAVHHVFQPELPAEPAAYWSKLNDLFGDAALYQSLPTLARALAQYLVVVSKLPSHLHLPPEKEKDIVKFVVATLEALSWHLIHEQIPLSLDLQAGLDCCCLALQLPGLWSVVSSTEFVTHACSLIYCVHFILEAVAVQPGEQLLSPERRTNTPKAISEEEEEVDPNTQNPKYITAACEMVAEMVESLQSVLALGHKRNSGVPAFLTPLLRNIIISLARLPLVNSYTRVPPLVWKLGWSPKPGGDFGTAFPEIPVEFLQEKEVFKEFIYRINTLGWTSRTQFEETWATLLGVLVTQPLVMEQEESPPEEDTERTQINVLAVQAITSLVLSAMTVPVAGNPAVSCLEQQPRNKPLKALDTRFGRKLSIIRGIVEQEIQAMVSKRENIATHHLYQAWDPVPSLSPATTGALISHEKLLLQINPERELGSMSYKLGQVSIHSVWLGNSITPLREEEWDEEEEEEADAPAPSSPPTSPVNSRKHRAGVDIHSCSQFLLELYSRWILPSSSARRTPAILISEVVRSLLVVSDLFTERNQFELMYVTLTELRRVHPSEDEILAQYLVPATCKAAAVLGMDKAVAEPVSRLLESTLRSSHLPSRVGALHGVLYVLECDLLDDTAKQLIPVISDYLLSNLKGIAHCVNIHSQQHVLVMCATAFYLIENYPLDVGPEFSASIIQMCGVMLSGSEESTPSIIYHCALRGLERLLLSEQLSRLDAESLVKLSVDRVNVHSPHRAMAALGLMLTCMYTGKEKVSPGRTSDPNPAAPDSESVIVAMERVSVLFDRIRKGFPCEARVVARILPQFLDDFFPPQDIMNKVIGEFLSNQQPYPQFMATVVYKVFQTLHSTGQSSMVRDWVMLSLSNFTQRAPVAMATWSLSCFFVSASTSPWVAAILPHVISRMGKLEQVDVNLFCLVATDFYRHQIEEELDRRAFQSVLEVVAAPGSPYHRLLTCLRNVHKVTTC
Put plainly: Q46 radioligand binding assay (RBA). The note with it: 10 nM ligand [3H3]MK-3328. The procedure: Q46 Radioligand Binding Assay
For radioligand binding assays (RBA) GST-Q46 protein was generated based on a previous publication (Scherzinger et al. Cell, Vol. 90, 549-558, Aug. 8, 1997). For experiments 33 μM GST-Q46 was incubated with 150 μg/mL thrombin in assay buffer (150 mM NaCl, 50 mM Tris pH 8.0) and 2 mM CaCl2 for 16 hours at 37° C. Aggregated Q46 was pelleted by centrifugation for 5 minutes at 13,000 rpm in a bench top centrifuge and re-dissolved in the same volume of assay buffer. Test compounds were prepared by titration in DMSO at 11 concentrations from 33 μM to 1 nM. For the RBA, Q46 protein aggregates and test compounds were pre-incubated in assay buffer for 20 minutes at room temperature, in 140 μL/well in a 96-well plate (pp, round bottom). Then, ligand was added in 10 μL/well and incubated for 60 minutes at 37° C. Final assay concentrations were 1 μM to 30 pM test compound, 5 μM Q46 protein (equivalent monomer concentration) and 10 nM ligand [^3H3]MK-3328 (Harrision et al., ACS Med. Chem. Lett., 2 (2011), pp 498-502). Samples were transferred onto GF/B filter plates and washed 2× with 200 μL PBS using a Filtermate Harvester. After drying filter plates for 1 hour at 37° C., the back of the plates were sealed with foil and 30 μL/well scintillation fluid (Packard MicroScint 40) added, incubated for 15 minutes in the dark and counted in a TopCount reader. For analysis, replicate data from independent assay plates were normalized towards 0% and 100% inhibition using control wells of vehicle (0% inhibition) and 3 μM unlabelled MK-3328 (100% inhibition). IC50 values were determined with a sigmoidal inhibition model with four variables (top, bottom, slope, IC50) in a global fit using the normalized replicate data.
`O=C(Nc1ccc2oc(-c3cccnc3)nc2c1)c1nnc(-c2ccccc2)o1` returned an IC50 below 100 nM.
Next, `OC(Cc1ccc2oc(-c3cccnc3)nc2c1)c1ccccn1` (stereo not shown) [1-(pyridin-2-yl)-2-[2-(pyridin-3-yl)-1,3-benzoxazol-5-yl]ethan-1-ol]: 100 to 500 nM.
Next, `O=C(Cc1ccc2oc(-c3cccnc3)nc2c1)c1ccccn1` [1-(pyridin-2-yl)-2-[2-(pyridin-3-yl)-1,3-benzoxazol-5-yl]ethan-1-one]: 100 to 500 nM.
Next, `Cn1cc(-c2cc3cc(OCc4cncnc4)ccc3o2)c(C#N)n1` [1-methyl-4-[5-(pyrimidin-5-ylmethoxy)-1-benzofuran-2-yl]-1H-pyrazole-3-carbonitrile]: below 100 nM; `Cn1cc(COc2ccc3oc(-c4cccnc4)nc3c2)ncc1=O` [1-methyl-5-({[2-(pyridin-3-yl)-1,3-benzoxazol-5-yl]oxy}methyl)-1,2-dihydropyrazin-2-one]: 100 to 500 nM.
Consider `Cn1nc(C(=O)Nc2ccc3oc(-c4ccc(=O)n(C)n4)nc3c2)ccc1=O` [1-methyl-N-[2-(1-methyl-6-oxo-1,6-dihydropyridazin-3-yl)-1,3-benzoxazol-5-yl]-6-oxo-1,6-dihydropyridazine-3-carboxamide], for which the IC50 is below 100 nM.
Take `Cn1cc(C(=O)Nc2ccc3oc(-c4cccnc4)nc3c2)cn1` [1-methyl-N-[2-(pyridin-3-yl)-1,3-benzoxazol-5-yl]-1H-pyrazole-4-carboxamide]: the IC50 is below 100 nM.
`COc1ccc(COc2ccc3oc(-c4cc5ccccc5o4)nc3c2)nc1` [2-(1-benzofuran-2-yl)-5-[(5-methoxypyridin-2-yl)methoxy]-1,3-benzoxazole] returned an IC50 below 100 nM.
Compound `COc1ccc(COc2ccc3oc(-c4ccc5occc5c4)nc3c2)nc1` [2-(1-benzofuran-5-yl)-5-[(5-methoxypyridin-2-yl)methoxy]-1,3-benzoxazole] gave an IC50 below 100 nM.
Next, `COc1ccc(COc2ccc3oc(-n4ccnc4)nc3c2)nc1` [2-(1H-imidazol-1-yl)-5-[(5-methoxypyridin-2-yl)methoxy]-1,3-benzoxazole]: below 100 nM; `COc1ccc(COc2ccc3oc(C4Cc5ccccc5O4)nc3c2)nc1` (stereo not shown) [2-(2,3-dihydro-1-benzofuran-2-yl)-5-[(5-methoxypyridin-2-yl)methoxy]-1,3-benzoxazole]: below 100 nM.
Next, `Brc1cnccc1-c1nc2ccc(OCCN3CCOCC3)cc2s1` [2-(3-bromopyridin-4-yl)-6-[2-(morpholin-4-yl)ethoxy]-1,3-benzothiazole]: below 100 nM; `COc1ccc(COc2ccc3oc(N4CC(F)C4)nc3c2)nc1` [2-(3-fluoroazetidin-1-yl)-5-[(5-methoxypyridin-2-yl)methoxy]-1,3-benzoxazole]: 100 to 500 nM; `COc1ccc(COc2ccc3oc(-c4ccc(OC)cn4)nc3c2)nc1` [2-(5-methoxypyridin-2-yl)-5-[(5-methoxypyridin-2-yl)methoxy]-1,3-benzoxazole]: below 100 nM.
Next, `c1cncc(COc2ccc3oc(-c4cccnc4)nc3c2)c1` [2-(pyridin-3-yl)-5-(pyridin-3-ylmethoxy)-1,3-benzoxazole]: below 100 nM; `c1cncc(COc2ccc3nc(-c4cccnc4)oc3c2)c1` [2-(pyridin-3-yl)-6-(pyridin-3-ylmethoxy)-1,3-benzoxazole]: below 100 nM.
On to `c1cnc(Nc2ccc3oc(-c4cccnc4)nc3c2)nc1` [2-(pyridin-3-yl)-N-(pyrimidin-2-yl)-1,3-benzoxazol-5-amine], for which the IC50 is below 100 nM.
In the case of `c1cncc(-c2nc3cc(Nc4ccncn4)ccc3o2)c1` [2-(pyridin-3-yl)-N-(pyrimidin-4-yl)-1,3-benzoxazol-5-amine], the IC50 was below 100 nM.
The compound `COc1ccc(C(Nc2cnc3oc(-c4cccnc4)nc3c2)C(F)(F)F)cc1` (stereo not shown) [2-(pyridin-3-yl)-N-[2,2,2-trifluoro-1-(4-methoxyphenyl)ethyl]-[1,3]oxazolo[5,4-b]pyridin-6-amine] returned an IC50 above 50 nM.
In turn, `c1cncc(-c2nc3cc(Nc4nnc5ccccn45)ccc3o2)c1` [2-(pyridin-3-yl)-N-{[1,2,4]triazolo[4,3-a]pyridin-3-yl}-1,3-benzoxazol-5-amine] showed an IC50 below 100 nM.
Consider `Cn1cc(-c2nc3cc(OCc4cnccn4)cnc3o2)cn1` [2-({[2-(1-methyl-1H-pyrazol-4-yl)-[1,3]oxazolo[5,4-b]pyridin-6-yl]oxy}methyl)pyrazine], for which the IC50 fell in the range of 100 to 500 nM.
For the compound `COc1ccc(COc2ccc3oc(-c4cccc(OCc5ccccc5)c4)nc3c2)nc1` [2-[3-(benzyloxy)phenyl]-5-[(5-methoxypyridin-2-yl)methoxy]-1,3-benzoxazole], the IC50 is below 100 nM.
As for `COCCOc1cncc(-c2nc3cc(OCc4ccc(OC)cn4)ccc3o2)c1` [2-[5-(2-methoxyethoxy)pyridin-3-yl]-5-[(5-methoxypyridin-2-yl)methoxy]-1,3-benzoxazole], the figure is below 100 nM; as for `COc1ccc(COc2ccc3oc([C@H]4Cc5ccccc5O4)nc3c2)nc1` [2-[(2R)-2,3-dihydro-1-benzofuran-2-yl]-5-[(5-methoxypyridin-2-yl)methoxy]-1,3-benzoxazole], below 100 nM; as for `COc1ccc(COc2ccc3oc([C@@H]4Cc5ccccc5O4)nc3c2)nc1` [2-[(2S)-2,3-dihydro-1-benzofuran-2-yl]-5-[(5-methoxypyridin-2-yl)methoxy]-1,3-benzoxazole], below 100 nM.
Compound `COc1ccc(/C=C/c2nc3cc(OCc4ccc(OC)cn4)ccc3o2)cc1` [2-[(E)-2-(4-methoxyphenyl)ethenyl]-5-[(5-methoxypyridin-2-yl)methoxy]-1,3-benzoxazole] came in with an IC50 below 100 nM.
As for `COc1cnc(COc2cnc3oc(-c4cnn(C)c4)nc3c2)cn1` [2-methoxy-5-({[2-(1-methyl-1H-pyrazol-4-yl)-[1,3]oxazolo[5,4-b]pyridin-6-yl]oxy}methyl)pyrazine], the figure is below 100 nM; as for `COc1ncc(C(=O)Nc2ccc3oc(-c4cccc(C)c4)nc3c2)cn1` [2-methoxy-N-[2-(3-methylphenyl)-1,3-benzoxazol-5-yl]pyrimidine-5-carboxamide], below 100 nM; as for `COc1ccc(-c2nc3cc(NC(=O)c4ccccc4OC)ccc3o2)cc1` [2-methoxy-N-[2-(4-methoxyphenyl)-1,3-benzoxazol-5-yl]benzamide], below 100 nM.
In turn, `Cn1nc(COc2cnc3oc(-c4cccnc4)nc3c2)ccc1=O` [2-methyl-6-({[2-(pyridin-3-yl)-[1,3]oxazolo[5,4-b]pyridin-6-yl]oxy}methyl)-2,3-dihydropyridazin-3-one] had an IC50 of 100 to 500 nM.
`Cc1cc(C(=O)Nc2ccc3oc(-c4cccnc4)nc3c2)ccn1` [2-methyl-N-[2-(pyridin-3-yl)-1,3-benzoxazol-5-yl]pyridine-4-carboxamide] showed an IC50 below 100 nM.
As for `O=C(COc1ccccc1)Nc1ccc2oc(-c3cccnc3)nc2c1` [2-phenoxy-N-[2-(pyridin-3-yl)-1,3-benzoxazol-5-yl]acetamide], the figure is below 100 nM; as for `O=C(Nc1ccc2oc(-c3cccnc3)nc2c1)c1cccnc1Oc1ccccc1` [2-phenoxy-N-[2-(pyridin-3-yl)-1,3-benzoxazol-5-yl]pyridine-3-carboxamide], below 100 nM; as for `O=C(Nc1ccc2oc(-c3cccnc3)nc2c1)c1cnc(-c2ccccc2)nc1` [2-phenyl-N-[2-(pyridin-3-yl)-1,3-benzoxazol-5-yl]pyrimidine-5-carboxamide], below 100 nM.
Next, `COc1ccc(COc2ccc3oc(N4CCc5nc[nH]c5C4)nc3c2)nc1` [2-{3H,4H,5H,6H,7H-imidazo[4,5-c]pyridin-5-yl}-5-[(5-methoxypyridin-2-yl)methoxy]-1,3-benzoxazole]: below 100 nM; `COc1ccc(COc2ccc3oc(-c4ccc5ccccc5n4)nc3c2)nc1` [2-{5-[(5-methoxypyridin-2-yl)methoxy]-1,3-benzoxazol-2-yl}quinoline]: below 100 nM.
Next, `COc1ccc(COc2ccc3oc(N4CCn5ccnc5C4)nc3c2)nc1` [2-{5H,6H,7H,8H-imidazo[1,2-a]pyrazin-7-yl}-5-[(5-methoxypyridin-2-yl)methoxy]-1,3-benzoxazole]: below 100 nM; `COc1ccc(COc2ccc3oc(N4CCn5cncc5C4)nc3c2)nc1` [2-{5H,6H,7H,8H-imidazo[1,5-a]pyrazin-7-yl}-5-[(5-methoxypyridin-2-yl)methoxy]-1,3-benzoxazole]: below 100 nM.
`COc1ccc(COc2cnc3oc(-c4cnccn4)nc3c2)nc1` [2-{6-[(5-methoxypyridin-2-yl)methoxy]-[1,3]oxazolo[5,4-b]pyridin-2-yl]pyrazine] showed an IC50 below 100 nM.
As for `O=C(Nc1ccc2oc(-c3cccnc3)nc2c1)c1cccc(OCc2ccccc2)c1` [3-(benzyloxy)-N-[2-(pyridin-3-yl)-1,3-benzoxazol-5-yl]benzamide], the figure is below 100 nM.
